The target in one experiment is Human ACC2 (Homo sapiens, UniProt O00763). As to the kind of experiment: In vitro ACC2 inhibition assay (ADP-Glo), human ACC2. Format: biochemical. The settings on record: 5 nM ACC2, 20 μM ATP, 20 μM acetyl-CoA.
The next experiment deals with C. albicans ATCC 90028. As to the kind of experiment: Anti-Fungal Activity Assay (broth microtiter MIC), C. albicans. Format: cell-based, Candida albicans. The settings on record: Candida albicans, ATCC90028, 48 h, 3 replicates; MIC recorded at 48 h; read-out: MIC C. albicans ATCC 90028. In short, it runs like this:
(§1)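 Plate from frozen stock onto Sabouraud dextrose agar, 35° C overnight; swab colonies into RPMI 1640+MOPS; set density via standard curves; run CLSI M27-A3 broth microdilution; score MIC visually versus growth control at 48 h, soraphen additionally at 24 h.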

A further experiment has as its system C. krusei ATCC 6258. The experiment in a line: Anti-Fungal Activity Assay (broth microtiter MIC), C. krusei. The class given is cell-based, Candida krusei. The settings on record: Pichia kudriavzevii, ATCC6258, 48 h, 3 replicates; MIC recorded at 48 h; read-out: MIC C. krusei ATCC 6258. In short, it runs like this: as §1
Experiment [1] concerns C. parapsilosis ATCC 22019. As to the kind of experiment: Anti-Fungal Activity Assay (broth microtiter MIC), C. parapsilosis. The class given is cell-based, Candida parapsilosis. The conditions noted are these: Lodderomyces parapsilosis, ATCC22019, 48 h, 3 replicates; MIC recorded at 48 h; read-out: MIC C. parapsilosis ATCC 22019. The gist of the method: as §1
In the next experiment the test system is Candida glabrata. As to the kind of experiment: In vitro antifungal assay (broth microdilution, Micromyx), C. glabrata. The settings on record: Nakaseomyces glabratus, ATCC90030, strain 0635 ATCC 90030, 35° C., approximately 24-48 hr. The class given is cell-based. The method, then: (§2) Compounds of the present invention were also assayed in an in vitro antifungal assay against Candida glabrata, Candida tropicalis, and Aspergillus fumigatus, performed by Micromyx, a representative procedure of which follows. The test organisms were reference strains acquired from the American Type Culture Collection (ATCC). Upon receipt, the isolates were streaked onto Sabouraud Dextrose Agar (SDA). Colonies were harvested from these plates and a cell suspension was prepared in Sabouraud Dextrose Broth (Becton Dickinson, Sparks, Md.) containing cryoprotectant. Aliquots were then frozen at −80° C. Prior to the assay, the frozen seeds of all yeast isolates to be tested in that session were thawed and streaked for isolation onto SDA and incubated overnight at 35° C. All fungal isolates were previously streaked on SDA and incubated at 35° C. until spore formation occurred, followed by harvesting of the spores in sterile 0.85% saline and enumeration. The spore preps were stored at 4° C. Yeast and fungal isolates were tested in RPMI medium (Catalog No. SH30011.04; Lot No. AYB60287A; HyClone Labs, Logan, Utah) buffered with 0.165 M MOPS (Catalog No. 475898; Lot No. D00165859; CalBiochem, La Jolla, Calif.). The pH of the medium was adjusted to 7.0 with 1 N NaOH, sterile filtered using a 0.2 μm PES filter, and stored at 4° C. until used. All of the above media was prepared and stored according to guidelines from the Clinical and Laboratory Standards Institute (CLSI; 2-4). The broth microdilution assay method essentially followed the procedure described by CLSI (2-4) and employed automated liquid handlers to conduct serial dilutions and liquid transfers. Automated liquid handlers included the Multidrop 384 (Labsystems, Helsinki, Finland) and Biomek 2000 (Beckman Coulter, Fullerton Calif. The wells in columns 2-12 in standard 96-well microdilution plates (Costar 3795) were filled with 150 μl of the correct diluent. These would become the ‘mother plates’ from which ‘daughter’ or test plates would be prepared. The drugs (300 μL at 40× the desired top concentration in the test plates) were dispensed into the appropriate well in Column 1 of the mother plates. The Biomek 2000 was used to make serial two-fold dilutions through Column 11 in the “mother plate”. The wells of Column 12 contained no drug and were the organism growth control wells. The daughter plates were loaded with 185 μL per well of the appropriate test media using the Multidrop 384. The daughter plates were prepared using the Biomek FX which transferred 5 μL of drug solution from each well of a mother plate to the corresponding well of the correct daughter plate in a single step. A standardized inoculum of each organism was prepared per CLSI methods (2-4). For yeast isolates, colonies were picked from the primary plate and a suspension was prepared to equal a 0.5 McFarland turbidity standard. Suspensions were then diluted 1:100 in RPMI 1640 medium, resulting in a final inoculum concentration of 0.5-2.5×10^3 CFU/mL per test well. […] Standardized inoculum suspensions were transferred to compartments of sterile reservoirs divided by length (Beckman Coulter), and the Biomek 2000 was used to inoculate all plates. Daughter plates were placed on the Biomek 2000 in reverse orientation so that plates were inoculated from low to high drug concentration. The Biomek 2000 delivered 10 μL of standardized inoculum into each well of the appropriate daughter plate for an additional 1:20 dilution. Thus, the wells of the daughter plates ultimately contained 185 μL of the appropriate media, 5 μL of drug solution, and 10 μL of inoculum. The final concentration of DMSO (if used as a solvent) in the test well was 2.5%. Plates were stacked 3 high, covered with a lid on the top plate, placed into plastic bags, and incubated at 35° C. for approximately 24-48 hr for all yeast isolates, and 48 hr for all fungal isolates. Plates were viewed from the bottom using a plate viewer. […]
In general terms: In broth dilution the organism is exposed to a series of concentrations in liquid medium.

The test system of a further experiment is Candida tropicalis. As to the kind of experiment: In vitro antifungal assay (broth microdilution, Micromyx), C. tropicalis. The class given is cell-based. The settings on record: ATCC90874, strain 0636 ATCC 90874, 35° C., approximately 24-48 hr. The method, then:
as §2

The test system of a further experiment is Aspergillus fumigatus. As to the kind of experiment: In vitro antifungal assay (broth microdilution, Micromyx), A. fumigatus. The class given is cell-based. The conditions noted are these: 48 hr. The method, then:
as §2

The next experiment addresses Fungal ACC2 (UniProt Q00955). The conditions noted are these: read-out: Fungal ACC2 (IC50, in vitro ACC2 inhibition).
The subject of another experiment is ACC1. The conditions noted are these: ACC1 isolated from rat, mouse, monkey and human; cited from earlier work.
For another experiment, the system named is ACC2. The settings on record: ACC2 isolated from rat, mouse, monkey and human; cited from earlier work.

Converted amounts (≈) assume the structure as drawn. Like-named read-outs stand apart in the source and are kept apart here.

Chain of Human ACC2 (O00763 whole entry): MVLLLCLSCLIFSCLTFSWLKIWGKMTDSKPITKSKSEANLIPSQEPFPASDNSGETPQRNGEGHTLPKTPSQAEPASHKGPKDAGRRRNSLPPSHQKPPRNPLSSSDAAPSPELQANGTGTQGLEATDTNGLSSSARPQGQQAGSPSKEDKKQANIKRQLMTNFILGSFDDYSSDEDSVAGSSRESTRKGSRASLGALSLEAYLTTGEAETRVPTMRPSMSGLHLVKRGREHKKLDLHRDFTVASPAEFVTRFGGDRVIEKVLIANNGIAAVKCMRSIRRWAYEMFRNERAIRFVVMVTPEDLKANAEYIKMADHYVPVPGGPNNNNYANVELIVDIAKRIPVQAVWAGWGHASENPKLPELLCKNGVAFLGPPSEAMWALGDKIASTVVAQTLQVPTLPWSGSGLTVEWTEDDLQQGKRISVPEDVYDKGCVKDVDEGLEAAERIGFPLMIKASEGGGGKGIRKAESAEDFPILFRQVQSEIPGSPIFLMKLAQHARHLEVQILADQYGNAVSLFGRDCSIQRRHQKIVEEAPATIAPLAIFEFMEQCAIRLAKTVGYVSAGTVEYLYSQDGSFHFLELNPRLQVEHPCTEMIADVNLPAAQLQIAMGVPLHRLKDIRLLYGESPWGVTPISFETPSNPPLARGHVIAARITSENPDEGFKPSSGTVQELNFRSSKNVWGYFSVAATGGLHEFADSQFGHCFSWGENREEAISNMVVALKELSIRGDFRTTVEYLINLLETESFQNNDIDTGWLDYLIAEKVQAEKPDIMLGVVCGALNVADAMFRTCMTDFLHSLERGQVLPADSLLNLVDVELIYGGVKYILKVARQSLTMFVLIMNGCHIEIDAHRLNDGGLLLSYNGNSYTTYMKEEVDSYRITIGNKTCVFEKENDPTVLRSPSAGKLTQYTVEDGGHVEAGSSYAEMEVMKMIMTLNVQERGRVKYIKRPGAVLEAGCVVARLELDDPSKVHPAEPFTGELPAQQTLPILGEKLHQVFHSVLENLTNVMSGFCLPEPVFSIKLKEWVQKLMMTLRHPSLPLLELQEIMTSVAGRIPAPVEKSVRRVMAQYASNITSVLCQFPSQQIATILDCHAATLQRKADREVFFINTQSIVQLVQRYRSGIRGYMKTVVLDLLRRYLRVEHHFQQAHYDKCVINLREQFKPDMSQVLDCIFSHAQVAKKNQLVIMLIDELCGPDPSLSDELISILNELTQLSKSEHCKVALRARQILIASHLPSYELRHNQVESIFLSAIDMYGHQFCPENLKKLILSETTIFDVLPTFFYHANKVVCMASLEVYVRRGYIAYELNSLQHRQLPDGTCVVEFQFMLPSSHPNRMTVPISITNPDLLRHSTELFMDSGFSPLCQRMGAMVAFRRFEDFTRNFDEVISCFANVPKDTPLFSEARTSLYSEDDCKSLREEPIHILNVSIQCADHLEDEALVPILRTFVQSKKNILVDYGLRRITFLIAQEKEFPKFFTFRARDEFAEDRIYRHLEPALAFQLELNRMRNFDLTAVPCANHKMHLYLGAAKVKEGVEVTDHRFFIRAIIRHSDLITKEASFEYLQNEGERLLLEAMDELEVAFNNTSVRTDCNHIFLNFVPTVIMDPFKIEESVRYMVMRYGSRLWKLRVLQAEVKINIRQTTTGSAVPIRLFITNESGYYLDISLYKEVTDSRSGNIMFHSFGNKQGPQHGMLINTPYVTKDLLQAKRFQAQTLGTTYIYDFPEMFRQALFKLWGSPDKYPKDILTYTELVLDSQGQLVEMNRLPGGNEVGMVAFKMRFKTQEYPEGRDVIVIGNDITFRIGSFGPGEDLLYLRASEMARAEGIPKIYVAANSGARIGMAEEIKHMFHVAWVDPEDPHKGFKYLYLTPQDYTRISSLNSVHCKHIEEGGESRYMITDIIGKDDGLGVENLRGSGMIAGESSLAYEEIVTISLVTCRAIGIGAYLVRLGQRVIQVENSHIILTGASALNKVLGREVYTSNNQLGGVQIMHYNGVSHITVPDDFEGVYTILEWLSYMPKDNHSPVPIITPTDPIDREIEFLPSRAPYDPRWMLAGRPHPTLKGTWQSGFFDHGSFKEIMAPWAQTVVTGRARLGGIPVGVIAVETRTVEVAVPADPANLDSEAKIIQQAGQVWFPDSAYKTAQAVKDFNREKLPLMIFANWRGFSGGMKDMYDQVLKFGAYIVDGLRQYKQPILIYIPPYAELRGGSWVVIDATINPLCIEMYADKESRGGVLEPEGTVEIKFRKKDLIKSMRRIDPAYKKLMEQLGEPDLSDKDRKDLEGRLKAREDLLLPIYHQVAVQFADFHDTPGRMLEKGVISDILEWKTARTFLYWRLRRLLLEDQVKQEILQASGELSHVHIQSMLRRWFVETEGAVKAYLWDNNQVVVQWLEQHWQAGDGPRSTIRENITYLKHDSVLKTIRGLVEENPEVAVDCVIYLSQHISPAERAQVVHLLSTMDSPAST
Chain of Fungal ACC2 (Q00955 whole entry): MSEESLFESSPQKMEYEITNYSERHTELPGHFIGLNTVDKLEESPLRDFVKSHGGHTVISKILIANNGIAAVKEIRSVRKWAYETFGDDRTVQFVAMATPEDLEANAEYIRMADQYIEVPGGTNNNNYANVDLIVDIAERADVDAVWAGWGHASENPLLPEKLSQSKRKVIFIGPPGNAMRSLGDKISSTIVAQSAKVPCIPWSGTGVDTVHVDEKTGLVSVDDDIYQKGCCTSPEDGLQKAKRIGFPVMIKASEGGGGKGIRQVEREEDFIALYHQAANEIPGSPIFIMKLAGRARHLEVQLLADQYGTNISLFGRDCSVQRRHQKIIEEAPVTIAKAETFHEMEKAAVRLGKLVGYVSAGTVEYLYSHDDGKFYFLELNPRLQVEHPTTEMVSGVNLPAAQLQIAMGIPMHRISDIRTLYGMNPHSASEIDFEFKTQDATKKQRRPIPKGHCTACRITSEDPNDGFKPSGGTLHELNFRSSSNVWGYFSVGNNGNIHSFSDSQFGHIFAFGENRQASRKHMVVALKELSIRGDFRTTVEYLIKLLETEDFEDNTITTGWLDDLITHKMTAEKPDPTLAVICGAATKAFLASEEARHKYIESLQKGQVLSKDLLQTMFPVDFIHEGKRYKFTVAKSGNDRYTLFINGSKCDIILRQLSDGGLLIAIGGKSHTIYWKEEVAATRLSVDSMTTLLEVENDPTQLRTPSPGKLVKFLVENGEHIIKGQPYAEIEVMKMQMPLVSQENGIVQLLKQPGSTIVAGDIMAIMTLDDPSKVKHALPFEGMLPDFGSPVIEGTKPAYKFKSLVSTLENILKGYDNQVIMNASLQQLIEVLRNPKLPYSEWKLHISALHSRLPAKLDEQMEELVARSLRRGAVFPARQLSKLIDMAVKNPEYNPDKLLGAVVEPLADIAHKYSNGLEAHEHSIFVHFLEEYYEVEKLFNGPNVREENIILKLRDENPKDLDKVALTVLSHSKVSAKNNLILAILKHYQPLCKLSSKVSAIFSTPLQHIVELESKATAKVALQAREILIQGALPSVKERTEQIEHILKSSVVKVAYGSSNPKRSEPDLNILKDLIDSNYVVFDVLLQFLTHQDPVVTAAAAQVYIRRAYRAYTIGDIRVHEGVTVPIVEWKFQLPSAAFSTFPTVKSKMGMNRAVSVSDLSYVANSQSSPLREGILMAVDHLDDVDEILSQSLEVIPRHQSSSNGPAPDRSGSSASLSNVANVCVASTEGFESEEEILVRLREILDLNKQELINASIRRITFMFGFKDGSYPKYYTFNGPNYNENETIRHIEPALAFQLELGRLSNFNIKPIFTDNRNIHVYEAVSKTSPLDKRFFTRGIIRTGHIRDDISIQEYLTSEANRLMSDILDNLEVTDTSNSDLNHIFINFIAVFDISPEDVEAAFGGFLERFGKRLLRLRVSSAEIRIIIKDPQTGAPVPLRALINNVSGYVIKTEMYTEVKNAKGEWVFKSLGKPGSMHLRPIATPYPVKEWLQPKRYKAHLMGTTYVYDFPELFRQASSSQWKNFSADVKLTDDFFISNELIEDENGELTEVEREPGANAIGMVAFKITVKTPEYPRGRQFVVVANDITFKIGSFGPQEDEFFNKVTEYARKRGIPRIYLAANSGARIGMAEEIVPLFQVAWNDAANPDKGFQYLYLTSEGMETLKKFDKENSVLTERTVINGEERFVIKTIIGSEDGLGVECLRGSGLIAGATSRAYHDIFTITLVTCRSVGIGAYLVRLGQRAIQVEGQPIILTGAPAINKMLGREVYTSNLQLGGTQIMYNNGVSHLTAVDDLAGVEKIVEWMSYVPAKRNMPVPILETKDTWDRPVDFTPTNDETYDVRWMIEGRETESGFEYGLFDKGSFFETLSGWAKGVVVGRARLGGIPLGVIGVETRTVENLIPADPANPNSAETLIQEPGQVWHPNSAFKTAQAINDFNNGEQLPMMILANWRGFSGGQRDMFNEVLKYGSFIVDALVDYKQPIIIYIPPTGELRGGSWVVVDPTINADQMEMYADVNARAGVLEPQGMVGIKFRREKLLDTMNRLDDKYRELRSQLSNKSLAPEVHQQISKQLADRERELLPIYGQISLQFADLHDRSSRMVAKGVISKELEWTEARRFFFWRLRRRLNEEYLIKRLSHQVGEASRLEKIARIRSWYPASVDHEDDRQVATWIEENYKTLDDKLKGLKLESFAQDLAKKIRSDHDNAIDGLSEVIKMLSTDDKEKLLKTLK

On to `COc1ccc(F)cc1[C@H](Cn1c(=O)n([C@H]2CCCN(C)C2=O)c(=O)c2c(C)c(-n3nccn3)sc21)OC1CCOCC1` [Compound I-39, 1-((R)-2-(5-fluoro-2-methoxyphenyl)-2-((tetrahydro-2H-pyran-4-yl)oxy)ethyl)-5-methyl-3-((S)-1-methyl-2-oxopiperidin-3-yl)-6-(2H-1,2,3-triazol-2-yl)thieno[2,3-d]pyrimidine-2,4(1H,3H)-dione], for which the IC50 against Human ACC2 lay in the range of 2 to 10 nM; at Fungal ACC2 it was 0.7 to 2 nM. Besides, the MIC is 0.25 to 1 µg/mL (≈ 0.408 to 1.63 µM) in the experiment on C. albicans ATCC 90028; 0.25 to 1 µg/mL (≈ 0.408 to 1.63 µM) with C. krusei ATCC 6258; 0.25 to 1 µg/mL (≈ 0.408 to 1.63 µM) in experiment [1]; > 4.1 µg/mL in the experiment with Candida glabrata; 0.25 to 1 µg/mL (≈ 0.408 to 1.63 µM) against Candida tropicalis; 1.1 to 2 µg/mL (≈ 1.8 to 3.26 µM) in the experiment with Aspergillus fumigatus (strain 5280 ATCC MYA-3626, 35° C., read-out: MIC, A. fumigatus 5280 ATCC MYA-3626). Further, in the experiment with Aspergillus fumigatus (strain 6781 ATCC MYA-4609, 35° C., read-out: MIC, A. fumigatus 6781 ATCC MYA-4609), the MIC lay within 1.1 to 2 µg/mL (≈ 1.8 to 3.26 µM).
For the molecule `O=C(c1c2ccccc2cc2ccccc12)N1CCC(N2CCC[C@@H](C(=O)N3CCOCC3)C2)CC1` [CP-640186], the IC50 with ACC1 and in the experiment with ACC2 was ~60 nM throughout.

As a reminder, the IC50 is the midpoint of a concentration-inhibition curve. By MIC is commonly meant the lowest concentration that inhibits growth of the organism.

The values are drawn from patent US20190330224A1, “ACC INHIBITORS AND USES THEREOF” (Gilead Apollo, LLC, priority 2015, published 2019).
